Assay results published in patent US7510825B2, “Kits and methods for detection of apoptotic cells” (NST NeuroSurvival Technologies Ltd, priority 2000, dated 2009).

Test system: cardiomyocytes
Experiment: Focal uptake of DDC in heart following sepsis (CLP)
Format: in vivo, mice
Details: 24 h after cecal ligature and perforation
Protocol: A. Administration of DDC in-vivo: Injection of 200 μl of DDC intravenously. Following 1-2 hours, animal is sacrificed, and the desired organ is placed in a test tube or on a small plate, suitable for liquid nitrogen freezing. The plate is then covered with an aluminum foil, and transferred to liquid nitrogen. Following 5-30 minutes the specimen is being frozen to −80° C. and kept at −80° C. for at least 16 hr. B. Analysis of the Specimen: • a. Whole organ imaging Ex-vivo whole organ fluorescence imaging may be carried out on freshly excised specimen, that can be analyzed under a stereomicroscope (such as Leica MZ FL III, Leica Switzerland). DDC may be visualized using 360cx and >420cm nm filter set. Emitted fluorescence can be imaged using appropriate camera and software, such as a Leica DC 300F Distal camera and images can be processed and analyzed by Leica QWin Lite software. • b. Histological analysis, from the frozen organ or tissue, 4 μm cryosections are prepared on slides. Analysis of the tissue sections can be performed using a fluorescence microscope with a UV filter characterized by excitation at 360-370 nm (band pass) and emission at 420 nm (barrier filter) In case that staining of the examined tissue is desired, the following procedures can be applied:
The cecum of anesthetized mice was isolated, ligated distal to the ileocaecal valve, and punctured twice with 26-gauge needle. […]

`CN(C)c1cccc2c(S(=O)(=O)NC(CSSCC(NS(=O)(=O)c3cccc4c(N(C)C)cccc34)C(=O)O)C(=O)O)cccc12` (stereo not shown) [DDC] was tested, and the “fluorescence of DDC in cardiomyocytes following sepsis” value was “can be seen in single cardiomyocites”.
